These results are taken from US10064848B2, “Pyridic ketone derivatives, method of preparing same, and pharmaceutical application thereof” (Shanghai Hengrui Pharmaceutical Co., Ltd., priority 2013, dated 2018).

What is called IC50 is the concentration that inhibits the measured activity by half.

The test system of the experiment is Colo205 cell. Kind of experiment: Proliferation inhibition on Colo205 (CCK8). It is filed as cell-based. The note with it: Homo sapiens, COLO 205, Colo205, 72 hours. From the text:
Cell line used in the assay: Colo205 (Cell Bank of the Chinese Academy of Sciences, Catalog No. TCHu102).
The following in vitro cell assay is to determine the activity of the compounds of the present invention for inhibiting the proliferation of human colon cancer cell, and the activity is expressed as IC50. General programs of this kind of assay were as follows: First, the cell line to be tested (purchased from Cell Bank of the Chinese Academy of Sciences) was inoculated in a 96-well culture plate with a suitable cell concentration of 4000 cells/mL medium, and was cultured in a carbon dioxide incubator at 37° C., then grown overnight. The medium was replaced by new medium added with a series of concentrations (10000 nM, 1000 nM, 100 nM, 10 nM, 1 nM, 0.1 nM) of the test compound solutions. The plates were placed back in the incubator, and continuously cultured for 72 hours. After 72 hours, CCK8 (Cell Counting Kit-8, Catalog No.: CK04, purchased from colleagues chemical company) method was used to determine the proliferation inhibition activity of the test compounds. IC50 values were calculated from the inhibition data of the test compounds at a series of different concentrations.
The above assay was used to determine the biochemical activity of the compounds of the present invention.
`Cc1c(F)cccc1Oc1cc(=O)n(C)c(Nc2ccc(I)cc2F)c1C(N)=O` [Example 1, 4-(3-fluoro-2-methylphenoxy)-2-((2-fluoro-4-iodophenyl)amino)-1-methyl-6-oxo-1,6-dihydropyridine-3-carboxamide] returned a concentration for half-maximal inhibition (IC50) of 700 pM. This lies in the sub-nanomolar range.

`CCS(=O)(=O)Nc1cccc(Oc2cc(=O)n(C)c(Nc3ccc(I)cc3F)c2C(N)=O)c1C` [Example 3, 4-(3-(ethylsulfonamido)-2-methylphenoxy)-2-((2-fluoro-4-iodophenyl)amino)-1-methyl-6-oxo-1,6-dihydropyridine-3-carboxamide]: half-maximal inhibition (IC50) was put at 40 pM. Compared with the last compound, the IC50 is about 18-fold lower.

The compound `Cc1cc(F)ccc1Oc1cc(=O)n(C)c(Nc2ccc(I)cc2F)c1C(N)=O` [Example 22, 4-(4-fluoro-2-methylphenoxy)-2-((2-fluoro-4-iodophenyl)amino)-1-methyl-6-oxo-1,6-dihydropyridine-3-carboxamide] had a half-inhibitory concentration (IC50) of 6100 pM.

`Cc1ncccc1Oc1cc(=O)n(C)c(Nc2ccc(I)cc2F)c1C(N)=O` [Example 29, 2-((2-fluoro-4-iodophenyl)amino)-1-methyl-4-((2-methylpyridin-3-yl)oxy)-6-oxo-1,6-dihydropyridine-3-carboxamide] returned an IC50 of 800 pM. Compared with the last compound, the IC50 is about 7.6-fold lower.

For the compound `Cc1ccc(Oc2cc(=O)n(C)c(Nc3ccc(I)cc3F)c2C(N)=O)cn1` [Example 31, 2-((2-fluoro-4-iodophenyl)amino)-1-methyl-4-((6-methylpyridin-3-yl)oxy)-6-oxo-1,6-dihydropyridine-3-carboxamide], half-maximal inhibition (IC50) was put at 3600 pM.
